# Patent publication US20090143279A1 (priority 2007, published 2009)
# Where two headings read alike, the source gives them in different places.
# Experiments:
# [1] = tested on: mitochondrial membrane potential; format: cell-based, mouse; conditions: for ΔΨm (composite Z-score): normalized score vs mock-treated (DMSO) wells
# reactive oxygen species = format: cell-based, mouse; conditions: for ROS (composite Z-score): normalized score vs mock-treated (DMSO) wells
# OXPHOS gene expression = format: cell-based, mouse; conditions: for GE-HTS (composite Z-score): normalized score vs mock-treated (DMSO) wells
# nuOXPHOS transcripts = format: cell-based, mouse; conditions: for nucOX (composite Z-score): normalized score vs mock-treated (DMSO) wells
# mtOXPHOS transcripts = format: cell-based, mouse; conditions: for mitoOX (composite Z-score): normalized score vs mock-treated (DMSO) wells
# cytochrome c = format: cell-based, mouse; conditions: for cyt c (composite Z-score): normalized score vs mock-treated (DMSO) wells
# C2C12 myotubes = conditions: for Viability (composite Z-score): normalized score vs mock-treated (DMSO) wells
# [2] = tested on: cellular dehydrogenase activity; conditions: for MTT (composite Z-score): normalized score vs mock-treated (DMSO) wells
# [3] = normalized composite Z-score vs mock-treated (DMSO) wells, Conc 20 μM
# [4] = composite Z-score vs mock-treated (DMSO) wells, Conc 20 μM
# [5] = composite Z-score vs DMSO, Conc 20 μM
# [6] = composite Z-score vs DMSO wells, Conc 20 μM
# [7] = 20 μM, composite Z-score vs DMSO
# [8] = composite Z-score vs mock-treated (DMSO) wells, concentration of each compound in μM
smiles,measurement,setting,value
Cc1c(O)c(C(=O)CC(C)C)c2oc3c(C(=O)CC(C)C)c(O)c(C)c(O)c3c2c1O [rhodomyrtoxin],ΔΨm (composite Z-score),[1]; Conc 20 μM,2.834
same,ROS (composite Z-score),reactive oxygen species; Conc 20 μM,0.397
same,GE-HTS (composite Z-score),OXPHOS gene expression; Conc 20 μM,0.357
same,nucOX (composite Z-score),nuOXPHOS transcripts; Conc 20 μM,0.412
same,mitoOX (composite Z-score),mtOXPHOS transcripts; Conc 20 μM,0.206
same,cyt c (composite Z-score),cytochrome c; Conc 20 μM,−1.200
same,Viability (composite Z-score),C2C12 myotubes; Conc 20 μM,−0.636
same,MTT (composite Z-score),[2]; Conc 20 μM,2.413
C[C@@H]1O[C@@H](O[C@H]2[C@H](Oc3cc(O)c4c(=O)cc(-c5ccc(O)cc5)oc4c3)O[C@H](CO)[C@@H](O)[C@@H]2O)[C@H](O)[C@H](O)[C@H]1O [rhoifolin],ΔΨm,[1]; [3],−0.213
same,ROS,reactive oxygen species; [3],0.471
same,GE-HTS,OXPHOS gene expression; [3],−0.838
same,nucOX,nuOXPHOS transcripts; [3],−0.774
same,mitoOX,mtOXPHOS transcripts; [3],−0.768
same,cyt c,cytochrome c; [3],0.515
same,Viability,C2C12 myotubes; [3],0.089
same,MTT,[2]; [3],−0.683
C1COC(NC(C2CC2)C2CC2)=N1 [rilmenidine],ΔΨm,[1],−0.589
same,ROS,reactive oxygen species,0.340
same,GE-HTS,OXPHOS gene expression,0.123
same,nucOX,nuOXPHOS transcripts,0.319
same,mitoOX,mtOXPHOS transcripts,−0.313
same,cyt c,cytochrome c,−0.042
same,Viability,C2C12 myotubes,0.245
same,MTT,[2],0.082
"COc1ccc(-c2c(OC)c3c(OC)c4c(cc3oc2=O)OC(C)(C)C=C4)cc1 [robustic acid methyl ether, reference compound]",ΔΨm (composite Z-score),[1]; Conc 20 μM,0.692
same,ROS (composite Z-score),reactive oxygen species; Conc 20 μM,1.431
same,GE-HTS (composite Z-score),OXPHOS gene expression; Conc 20 μM,0.230
same,nucOX (composite Z-score),nuOXPHOS transcripts; Conc 20 μM,0.444
same,mitoOX (composite Z-score),mtOXPHOS transcripts; Conc 20 μM,−0.223
same,cyt c (composite Z-score),cytochrome c; Conc 20 μM,0.679
same,Viability (composite Z-score),C2C12 myotubes; Conc 20 μM,0.497
same,MTT (composite Z-score),[2]; Conc 20 μM,0.474
"COc1ccc(-c2c(O)c3c(OC)c4c(cc3oc2=O)OC(C)(C)C=C4)cc1 [robustic acid, reference compound]",ΔΨm (composite Z-score),[1]; Conc 20 μM,−1.086
same,ROS (composite Z-score),reactive oxygen species; Conc 20 μM,−0.119
same,GE-HTS (composite Z-score),OXPHOS gene expression; Conc 20 μM,−0.930
same,nucOX (composite Z-score),nuOXPHOS transcripts; Conc 20 μM,−0.973
same,mitoOX (composite Z-score),mtOXPHOS transcripts; Conc 20 μM,−0.587
same,cyt c (composite Z-score),cytochrome c; Conc 20 μM,−0.459
same,Viability (composite Z-score),C2C12 myotubes; Conc 20 μM,−1.213
same,MTT (composite Z-score),[2]; Conc 20 μM,−1.831
"COc1cc2c(cc1OC)[C@@H]1C(=O)c3ccc(OC)c(CC=C(C)C)c3O[C@@H]1CO2 [rotenonic acid, methyl ether]",ΔΨm,[1]; [4],−3.751
same,ROS,reactive oxygen species; [4],−3.513
same,GE-HTS,OXPHOS gene expression; [4],−2.268
same,nucOX,nuOXPHOS transcripts; [4],−1.024
same,mitoOX,mtOXPHOS transcripts; [4],−4.305
same,cyt c,cytochrome c; [4],−3.644
same,Viability,C2C12 myotubes; [4],0.582
same,MTT,[2]; [4],−3.898
"COc1cc2c(cc1OC)[C@@H]1C(=O)c3ccc(O)c(CC=C(C)C)c3O[C@@H]1CO2 [rotenonic acid, reference compound]",ΔΨm,[1]; [4],0.050
same,ROS,reactive oxygen species; [4],0.173
same,GE-HTS,OXPHOS gene expression; [4],−0.064
same,nucOX,nuOXPHOS transcripts; [4],−0.010
same,mitoOX,mtOXPHOS transcripts; [4],−0.108
same,cyt c,cytochrome c; [4],0.365
same,Viability,C2C12 myotubes; [4],0.206
same,MTT,[2]; [4],−0.731
CC[C@@]1(O)C[C@H](O)c2c(cc3c(c2O)C(=O)c2c(O)ccc(O)c2C3=O)[C@H]1C(=O)OC [rutilantinone],ΔΨm,[1]; [5],−3.758
same,ROS,reactive oxygen species; [5],2.445
same,GE-HTS,OXPHOS gene expression; [5],−1.917
same,nucOX,nuOXPHOS transcripts; [5],−1.152
same,mitoOX,mtOXPHOS transcripts; [5],−3.039
same,cyt c,cytochrome c; [5],0.372
same,Viability,C2C12 myotubes; [5],0.192
same,MTT,[2]; [5],−2.979
OCc1ccccc1O [salicyl alcohol],ΔΨm,[1]; [6],−0.590
same,ROS,reactive oxygen species; [6],0.479
same,GE-HTS,OXPHOS gene expression; [6],−0.486
same,nucOX,nuOXPHOS transcripts; [6],−0.433
same,mitoOX,mtOXPHOS transcripts; [6],−0.498
same,cyt c,cytochrome c; [6],0.424
same,Viability,C2C12 myotubes; [6],0.377
same,MTT,[2]; [6],−0.178
"CC[C@@H](C(=O)[C@@H](C)[C@@H](O)[C@H](C)[C@@H]1O[C@@H]([C@@H](CC)C(=O)O)CC[C@@H]1C)[C@H]1O[C@]2(C=C[C@@H](O)[C@]3(CC[C@@](C)([C@H]4CC[C@](O)(CC)[C@H](C)O4)O3)O2)[C@H](C)C[C@@H]1C [salinomycin, reference compound]",ΔΨm,[1]; [7],2.976
same,ROS,reactive oxygen species; [7],−3.111
same,GE-HTS,OXPHOS gene expression; [7],−1.400
same,nucOX,nuOXPHOS transcripts; [7],−0.345
same,mitoOX,mtOXPHOS transcripts; [7],−3.359
same,cyt c,cytochrome c; [7],−0.566
same,Viability,C2C12 myotubes; [7],−0.247
same,MTT,[2]; [7],−2.918
C[C@@H]1NCCc2cc(O)c(O)cc21 [salsolinol],ΔΨm,[1]; [8],−0.160
same,ROS,reactive oxygen species; [8],−0.248
same,GE-HTS,OXPHOS gene expression; [8],−0.284
same,nucOX,nuOXPHOS transcripts; [8],−0.197
same,mitoOX,mtOXPHOS transcripts; [8],−0.397
same,cyt c,cytochrome c; [8],−0.994
same,Viability,C2C12 myotubes; [8],−1.127
same,MTT,[2]; [8],−1.113
C[C@@H]1O[C@@H](O[C@H]2[C@H](O[C@H]3CC[C@@]4(C)[C@@H](CC[C@]5(C)[C@@H]4CC=C4[C@@H]6CC(C)(C)CC[C@]6(C(=O)O)CC[C@]45C)[C@]3(C)CO)OC[C@H](O)[C@@H]2O)[C@H](O)[C@H](O)[C@H]1O [sapindoside A],ΔΨm,[1]; [5],−3.760
same,ROS,reactive oxygen species; [5],−2.825
same,GE-HTS,OXPHOS gene expression; [5],−1.176
same,nucOX,nuOXPHOS transcripts; [5],−1.786
same,mitoOX,mtOXPHOS transcripts; [5],0.322
same,cyt c,cytochrome c; [5],−4.058
same,Viability,C2C12 myotubes; [5],−3.886
same,MTT,[2]; [5],−4.558
COc1ccc2c(c1)OC/C(=C\c1ccc(OC)c(O)c1)C2=O [sappanone A dimethyl ether],ΔΨm (composite Z-score),[1]; Conc 20 μM,0.017
same,ROS (composite Z-score),reactive oxygen species; Conc 20 μM,−2.429
same,GE-HTS (composite Z-score),OXPHOS gene expression; Conc 20 μM,0.450
same,nucOX (composite Z-score),nuOXPHOS transcripts; Conc 20 μM,0.495
same,mitoOX (composite Z-score),mtOXPHOS transcripts; Conc 20 μM,0.248
same,cyt c (composite Z-score),cytochrome c; Conc 20 μM,−0.664
same,Viability (composite Z-score),C2C12 myotubes; Conc 20 μM,−1.045
same,MTT (composite Z-score),[2]; Conc 20 μM,−1.865
